Results taken from PubChem BioAssay AID1053155 (Broad Institute, 2014).

Molecular target: Low-density lipoprotein receptor (Homo sapiens) (UniProt P01130)
Assay: LDLR protein level induction, dose response, orthogonal assay for Trib1 inducer project, cell-based, HepG2, ELISA, plate reader, cherry-pick (AID 1053155)
Conditions: 24 h; for fold induction: measured here: max LDLR protein fold induction, stronger effect = higher value

Chain of Low-density lipoprotein receptor (Homo sapiens) (P01130 whole entry, looked up): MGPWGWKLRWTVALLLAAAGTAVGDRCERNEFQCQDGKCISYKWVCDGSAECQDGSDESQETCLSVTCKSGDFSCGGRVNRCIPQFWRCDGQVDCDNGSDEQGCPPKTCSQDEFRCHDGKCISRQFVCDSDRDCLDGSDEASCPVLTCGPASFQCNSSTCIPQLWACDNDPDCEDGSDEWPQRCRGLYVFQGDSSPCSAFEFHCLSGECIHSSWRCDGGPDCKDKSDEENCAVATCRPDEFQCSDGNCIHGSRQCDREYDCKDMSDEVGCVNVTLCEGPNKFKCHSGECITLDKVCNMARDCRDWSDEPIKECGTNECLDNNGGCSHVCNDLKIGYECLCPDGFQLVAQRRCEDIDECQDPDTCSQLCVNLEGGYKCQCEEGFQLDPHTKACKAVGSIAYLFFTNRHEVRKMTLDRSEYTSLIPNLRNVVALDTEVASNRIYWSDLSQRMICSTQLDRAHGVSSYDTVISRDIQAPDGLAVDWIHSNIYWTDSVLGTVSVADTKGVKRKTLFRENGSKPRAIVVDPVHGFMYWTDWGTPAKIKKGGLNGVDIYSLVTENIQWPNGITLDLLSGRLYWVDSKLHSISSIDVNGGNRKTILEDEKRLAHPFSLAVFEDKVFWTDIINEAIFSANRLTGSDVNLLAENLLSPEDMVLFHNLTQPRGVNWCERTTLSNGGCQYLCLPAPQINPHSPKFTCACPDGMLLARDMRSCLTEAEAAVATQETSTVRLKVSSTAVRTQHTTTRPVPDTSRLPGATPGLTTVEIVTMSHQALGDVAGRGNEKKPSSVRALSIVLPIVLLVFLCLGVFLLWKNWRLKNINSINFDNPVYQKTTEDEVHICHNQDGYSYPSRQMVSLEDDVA

AC50	fold induction	Compound
18 µM	3.3	CN1C(=O)c2cc(NC(=O)c3ccc(C(F)(F)F)cc3)ccc2OC[C@@H]2O[C@@H](CC(=O)NC3Cc4ccccc4C3)CC[C@@H]21
0.55 µM	4.6	CN1C(=O)c2cc(NC(=O)c3ccc(C(F)(F)F)cc3)ccc2OC[C@@H]2O[C@H](CC(=O)NC3Cc4ccccc4C3)CC[C@@H]21
